Experiment [1] deals with T1, Ba/F3 cells transformed with human Tel-TrkA (Homo sapiens, UniProt P04629).
T1 construct: expressed in transfected cells; host or cells: Ba/F3 murine hematopoietic progenitor cells (luciferase expressing); the other entry of the earlier key: ETV6 (P41212, Transcription factor ETV6)
Put plainly: Proliferation of Ba/F3 cells transformed with human Tel-TrkA (Ba/F3 Tel-TrkA). In kind it is cell-based. The settings on record: Table 1; 48 hours, Bright Glo luminescence; read-out: Ba/F3 Tel-TrkA. From the text:
(§1) Compound dilutions were made in 384 well plates.
(§2) The emited luminiscence is quantified using ViewLux (PerkinElmer).

A further experiment deals with parental Ba/F3 cells. The experiment can be described thus: Proliferation of parental (untransformed, wt) Ba/F3 cells (BAF3/WT). In kind it is cell-based, murine. The settings on record: Mus musculus, Table 1, parental cells with IL3, 48 hours. As for the experimental part:
as §1
Compounds were tested for their ability to inhibit the proliferation of wt Ba/F3 cells and Ba/F3 cells transformed with constitutively expressed luciferase reporter and BCR-ABL or Tel-FMS or other Tel fusion kinases (EGFR, JAK2, ALK, BMX, FGFR3, FGFR4, FGR2, FLT1, FLT3, IGF1R, INSR, KDR, KIT, LCK, LYN, MEK, MET, PDGFRα, PDGFRβ, RET, RON, ROS, SRC, SYK, TIE and TYRO) or BRafV600E. Parental Ba/F3 cells were maintained in media containing recombinant mouse IL3 and the kinase transformed Ba/F3 cells were maintained in media without IL-3. 7.5 nl of compounds were spotted to each well of 1536-well assay plates by Liquid handling System Echo 555 (Labcyte). 700 cells were then plated into each well of the assay plates in 7 uL culture media per well and compounds were tested at 0.17 nM to 10 uM in 3-fold serial dilutions. The cells were then incubated for 48 hours at 37° C. 3 uL of Bright-Glo® (Promega) was added to each well and the plates were read using ViewLux (PerkinElmer).
as §2

Bounds are passed on as bounds.

T1 sequence (P04629 510-796 limits assumed): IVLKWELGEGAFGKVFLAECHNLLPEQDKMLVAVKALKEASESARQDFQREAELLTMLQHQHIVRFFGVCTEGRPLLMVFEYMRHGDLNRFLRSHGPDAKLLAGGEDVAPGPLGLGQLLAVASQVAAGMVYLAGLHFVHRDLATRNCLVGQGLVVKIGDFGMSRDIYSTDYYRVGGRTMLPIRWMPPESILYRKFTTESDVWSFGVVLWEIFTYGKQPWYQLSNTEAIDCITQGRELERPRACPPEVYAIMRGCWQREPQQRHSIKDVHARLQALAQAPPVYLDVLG

`CCONC(=O)c1cnc2ccc(N3C[C@@H](F)C[C@@H]3c3cccc(F)c3)nn12` [X-142, N-ethoxy-6-((2R,4S)-4-fluoro-2-(3-fluorophenyl)pyrrolidin-1-yl)imidazo[1,2-b]pyridazine-3-carboxamide]: the IC50 in experiment [1] is 1 nM; with parental Ba/F3 cells, 6.69 µM.

`NC(=O)c1cnc2ccc(N3CC(F)(F)C[C@@H]3c3cccc(F)c3)nn12` [X-247, (R)-6-(4,4-difluoro-2-(3-fluorophenyl)pyrrolidin-1-yl)imidazo[1,2-b]pyridazine-3-carboxamide]: the results for the IC50 (in experiment [1]; with parental Ba/F3 cells) were 34 nM and greater than 10 µM, respectively.

As for `CCOC(=O)c1cnc2ccc(N3CCC[C@@H]3c3cccc(F)c3)nn12` [X-158, (R)-ethyl 6-(2-(3-fluorophenyl)pyrrolidin-1-yl)imidazo[1,2-b]pyridazine-3-carboxylate], the results for the IC50 (in experiment [1]; in the experiment with parental Ba/F3 cells) were 93 nM and greater than 10 µM, respectively.

With `NCC(=O)Nc1cnc2ccc(N3CC(F)(F)C[C@@H]3c3cccc(F)c3)nn12` [X-204, (R)-2-amino-N-(6-(4,4-difluoro-2-(3-fluorophenyl)pyrrolidin-1-yl)imidazo[1,2-b]pyridazin-3-yl)acetamide], the IC50 in experiment [1] is 28 nM; with parental Ba/F3 cells it was greater than 10 µM.

In the case of `NC(=O)c1cnc2ccc(N3CCCCC3c3cccc(F)c3)nn12` (stereo not shown) [X-18], the IC50 in experiment [1] was 27 nM; with parental Ba/F3 cells, greater than 10 µM.

Regarding `NC(=O)c1cnc2ccc(N3CCOCC3c3cccc(F)c3)nn12` (racemic) [X-16, 6-(3-(3-fluorophenyl)morpholino)imidazo[1,2-b]pyridazine-3-carboxamide], the IC50 is 614 nM in experiment [1] and greater than 10 µM in the experiment on parental Ba/F3 cells.

Regarding `O=C(NC1CCSCC1)c1cnc2ccc(N3CCC[C@@H]3c3cccc(F)c3)nn12` [X-59], the IC50 is 36 nM in experiment [1] and greater than 10 µM in the experiment with parental Ba/F3 cells.

For `O=C(NCC1CCCC1)c1cnc2ccc(N3CCC[C@@H]3c3cccc(F)c3)nn12` [X-109], the values for the IC50 (in experiment [1]; with parental Ba/F3 cells) were 40 nM and 7.96 µM, respectively.

For the molecule `COC(=O)N[C@@H](C)CNC(=O)c1cnc2ccc(N3CCC[C@@H]3c3cccc(F)c3)nn12` [X-87], the figures for the IC50 (in experiment [1]; in the experiment on parental Ba/F3 cells) were 76 nM and greater than 10 µM, respectively.

As to `CC(C)(C)OC(=O)N1CC[C@@H](NC(=O)c2cnc3ccc(N4CCC[C@@H]4c4cccc(F)c4)nn23)C1` [X-62], the IC50 in experiment [1] was 910 nM; in the experiment on parental Ba/F3 cells, greater than 10 µM.

As for `CCC(=O)c1cnc2ccc(N3CCC[C@@H]3c3cccc(F)c3)nn12` [X-123, (R)-1-(6-(2-(3-fluorophenyl)pyrrolidin-1-yl)imidazo[1,2-b]pyridazin-3-yl)propan-1-one], the results for the IC50 (in experiment [1]; with parental Ba/F3 cells) were 97 nM and greater than 10 µM, respectively.

With `O=C(NCC(F)(F)F)c1cnc2ccc(N3CCC[C@@H]3c3cccc(F)c3)nn12` [X-53], the values for the IC50 (in experiment [1]; with parental Ba/F3 cells) were 3 nM and greater than 10 µM, respectively.

With `O=C(NC1CCCOC1)c1cnc2ccc(N3CCC[C@@H]3c3cccc(F)c3)nn12` (stereo partly shown) [X-97], the IC50 was 8 nM in experiment [1] and greater than 10 µM in the experiment on parental Ba/F3 cells.

`N#CCC(=O)Nc1cnc2ccc(N3CCC[C@@H]3c3cccc(F)c3)nn12` [X-184]: the figures for the IC50 (in experiment [1]; in the experiment on parental Ba/F3 cells) were 291 nM and greater than 10 µM, respectively.

Take `CC(C)(C)NC(=O)c1cnc2ccc(N3CCC[C@@H]3c3cccc(F)c3)nn12` [X-45]: the IC50 in experiment [1] was 22 nM; with parental Ba/F3 cells, greater than 10 µM.

Consider `CCn1nccc1NC(=O)c1cnc2ccc(N3CCC[C@@H]3c3cccc(F)c3)nn12` [X-77], for which the figures for the IC50 (in experiment [1]; in the experiment with parental Ba/F3 cells) were 548 nM and greater than 10 µM, respectively.

For `Fc1cccc([C@H]2CCCN2c2ccc3ncc(Br)n3n2)c1` [X-1, (R)-3-bromo-6-(2-(3-fluorophenyl)pyrrolidin-1-yl)imidazo[1,2-b]pyridazine], the figures for the IC50 (in experiment [1]; in the experiment with parental Ba/F3 cells) were 316 nM and greater than 10 µM, respectively.

With `[2H]C1(c2cccc(F)c2)CCCN1c1ccc2ncc(C(N)=O)n2n1` (stereo not shown) [X-8, 6-(2-(3-fluorophenyl)pyrrolidin-1-yl)imidazo[1,2-b]pyridazine-3-carboxamide], the IC50 was 150 nM in experiment [1] and greater than 10 µM in the experiment with parental Ba/F3 cells.

Regarding `O=C(NCC1CCC1)c1cnc2ccc(N3CCC[C@@H]3c3cccc(F)c3)nn12` [X-22], the IC50 was 47 nM in experiment [1] and greater than 10 µM in the experiment with parental Ba/F3 cells.

For the molecule `O=C(NC[C@@H]1CCCO1)c1cnc2ccc(N3CCC[C@@H]3c3cccc(F)c3)nn12` [X-85], the figures for the IC50 (in experiment [1]; in the experiment on parental Ba/F3 cells) were 54 nM and greater than 10 µM, respectively.

On to `O=C(NCCF)c1cnc2ccc(N3CCC[C@@H]3c3cccc(F)c3)nn12` [X-96], for which the results for the IC50 (in experiment [1]; in the experiment on parental Ba/F3 cells) were 7 nM and greater than 10 µM, respectively.

For the molecule `O=C(NCCc1ccc(F)cc1)c1cnc2ccc(N3CCC[C@@H]3c3cccc(F)c3)nn12` [X-37], the IC50 was 137 nM in experiment [1] and greater than 10 µM in the experiment with parental Ba/F3 cells.

`CC(C)NC(=O)c1cnc2ccc(N3CCC[C@@H]3c3cccc(F)c3)nn12` [X-39]: the IC50 is 14 nM in experiment [1] and greater than 10 µM with parental Ba/F3 cells.

On to `O=C(COc1ccc(F)cc1)Nc1cnc2ccc(N3CCC[C@@H]3c3cccc(F)c3)nn12` [X-26], for which the IC50 in experiment [1] was 85 nM; in the experiment with parental Ba/F3 cells, greater than 10 µM.

As to `O=C(NCCCCO)c1cnc2ccc(N3CCC[C@@H]3c3cccc(F)c3)nn12` [X-20], the IC50 in experiment [1] is 30 nM; in the experiment with parental Ba/F3 cells, greater than 10 µM.

In the case of `CC(C)C[C@@H](CO)NC(=O)c1cnc2ccc(N3CCC[C@@H]3c3cccc(F)c3)nn12` [X-104], the IC50 is 697 nM in experiment [1] and greater than 10 µM in the experiment on parental Ba/F3 cells.

Regarding `[2H]C1([2H])CC[C@H](c2cccc(F)c2)N1c1ccc2ncc(C(N)=O)n2n1` [X-11], the values for the IC50 (in experiment [1]; with parental Ba/F3 cells) were 25 nM and greater than 10 µM, respectively.

For `CS(=O)(=O)N1CC[C@@H](NC(=O)c2cnc3ccc(N4CCC[C@@H]4c4cccc(F)c4)nn23)C1` [X-70], the IC50 in experiment [1] was 293 nM; with parental Ba/F3 cells, greater than 10 µM.

As to `CCOC(=O)c1cnc2ccc(N3CC(F)(F)C(F)(F)[C@@H]3c3cccc(F)c3)nn12` [X-164, (S)-ethyl 6-(3,3,4,4-tetrafluoro-2-(3-fluorophenyl)pyrrolidin-1-yl)imidazo[1,2-b]pyridazine-3-carboxylate], the IC50 is 600 nM in experiment [1] and greater than 10 µM in the experiment with parental Ba/F3 cells.

Take `COC(=O)c1cnc2ccc(N3CCC[C@@H]3c3cccc(F)c3)nn12` [X-157]: the IC50 is 112 nM in experiment [1] and greater than 10 µM with parental Ba/F3 cells.

In the case of `CCOC(=O)Nc1cnc2ccc(N3CCC[C@@H]3c3cccc(F)c3)nn12` [X-236, (R)-ethyl 6-(2-(3-fluorophenyl)pyrrolidin-1-yl)imidazo[1,2-b]pyridazin-3-ylcarbamate], the IC50 in experiment [1] was 545 nM; with parental Ba/F3 cells it was greater than 10 µM.

Regarding `CC(C)(C)OC(=O)NCC(=O)Nc1cnc2ccc(N3CCC[C@@H]3c3cccc(F)c3)nn12` [X-192], the figures for the IC50 (in experiment [1]; in the experiment with parental Ba/F3 cells) were 127 nM and greater than 10 µM, respectively.

In the case of `O=C(NCc1ccc(N2CC[C@@H](O)C2)nc1)c1cnc2ccc(N3CCC[C@@H]3c3cccc(F)c3)nn12` [X-99], the IC50 in experiment [1] is 731 nM; in the experiment with parental Ba/F3 cells it was greater than 10 µM.

With `[2H]C1([2H])CC[C@@H](c2cccc(F)c2)N1c1ccc2ncc(C(N)=O)n2n1` [X-10], the IC50 in experiment [1] was 841 nM; with parental Ba/F3 cells, greater than 10 µM.

Take `O=C(NC1CCN(C(=O)CO)CC1)c1cnc2ccc(N3CCC[C@@H]3c3cccc(F)c3)nn12` [X-75, (R)-6-(2-(3-fluorophenyl)pyrrolidin-1-yl)-N-(1-(2-hydroxyacetyl)piperidin-4-yl)imidazo[1,2-b]pyridazine-3-carboxamide]: the IC50 in experiment [1] was 98 nM; with parental Ba/F3 cells it was greater than 10 µM.

As to `N#Cc1ccc(CNC(=O)c2cnc3ccc(N4CCC[C@@H]4c4cccc(F)c4)nn23)cc1` [X-89], the IC50 in experiment [1] was 164 nM; in the experiment with parental Ba/F3 cells it was greater than 10 µM.

With `O=C(/C=C/c1cccc(N2CCOCC2)n1)c1cnc2ccc(N3CCC[C@@H]3c3cccc(F)c3)nn12` [X-128], the IC50 in experiment [1] came to 174 nM; in the experiment on parental Ba/F3 cells it was 1.39 µM.

`NC(=O)c1cnc2ccc(N3CCCC3c3cccc(F)c3)nn12` (stereo not shown) [X-5, 6-(2-(3-fluorophenyl)pyrrolidin-1-yl)imidazo[1,2-b]pyridazine-3-carboxamide]: the IC50 in experiment [1] was 117 nM; in the experiment on parental Ba/F3 cells it was greater than 10 µM.

Take `COCC(=O)Nc1cnc2ccc(N3CCC[C@@H]3c3cccc(F)c3)nn12` [X-200]: the IC50 in experiment [1] was 23 nM; with parental Ba/F3 cells, greater than 8.83 µM.

As for `COCCNC(=O)c1cnc2ccc(N3CCC[C@@H]3c3cccc(F)c3)nn12` [X-51], the IC50 in experiment [1] was 67 nM; in the experiment with parental Ba/F3 cells, greater than 10 µM.

Consider `O=C(NO)c1cnc2ccc(N3CCC[C@@H]3c3cccc(F)c3)nn12` [X-150], for which the IC50 in experiment [1] was 210 nM; in the experiment with parental Ba/F3 cells it was greater than 10 µM.

Take `CC(C)NC(=O)c1ccc(F)cc1C1CC(F)(F)CN1c1ccc2ncc(C(N)=O)n2n1` (stereo not shown) [X-250]: the IC50 in experiment [1] was 64 nM; in the experiment on parental Ba/F3 cells, greater than 10 µM.

For the molecule `CCCS(=O)(=O)N1CCC(NC(=O)c2cnc3ccc(N4CCC[C@@H]4c4cccc(F)c4)nn23)CC1` [X-35], the IC50 was 26 nM in experiment [1] and greater than 10 µM in the experiment on parental Ba/F3 cells.

For `[2H]C1([2H])C(c2cccc(F)c2)N(c2ccc3ncc(C(=O)OCC)n3n2)C([2H])([2H])C1([2H])[2H]` (stereo not shown) [X-161], the IC50 is 63 nM in experiment [1] and greater than 10 µM in the experiment with parental Ba/F3 cells.

The record behind these values is patent US8637516B2 (IRM LLC, priority 2010, dated 2014).
